Measurements reported in ChEMBL document CHEMBL5653631, “A Potent and Selective ULK1 Inhibitor Suppresses Autophagy and Sensitizes Cancer Cells to Nutrient Stress” (iScience, 2018).

Columns and labels:
[1] = biological target: T1, Inhibitor of nuclear factor kappa-B kinase subunit beta (Homo sapiens) (UniProt O14920); assay: Inhibition of human recombinant IKKb at 500 nM related to control ULK1
T1 sequence (whole entry): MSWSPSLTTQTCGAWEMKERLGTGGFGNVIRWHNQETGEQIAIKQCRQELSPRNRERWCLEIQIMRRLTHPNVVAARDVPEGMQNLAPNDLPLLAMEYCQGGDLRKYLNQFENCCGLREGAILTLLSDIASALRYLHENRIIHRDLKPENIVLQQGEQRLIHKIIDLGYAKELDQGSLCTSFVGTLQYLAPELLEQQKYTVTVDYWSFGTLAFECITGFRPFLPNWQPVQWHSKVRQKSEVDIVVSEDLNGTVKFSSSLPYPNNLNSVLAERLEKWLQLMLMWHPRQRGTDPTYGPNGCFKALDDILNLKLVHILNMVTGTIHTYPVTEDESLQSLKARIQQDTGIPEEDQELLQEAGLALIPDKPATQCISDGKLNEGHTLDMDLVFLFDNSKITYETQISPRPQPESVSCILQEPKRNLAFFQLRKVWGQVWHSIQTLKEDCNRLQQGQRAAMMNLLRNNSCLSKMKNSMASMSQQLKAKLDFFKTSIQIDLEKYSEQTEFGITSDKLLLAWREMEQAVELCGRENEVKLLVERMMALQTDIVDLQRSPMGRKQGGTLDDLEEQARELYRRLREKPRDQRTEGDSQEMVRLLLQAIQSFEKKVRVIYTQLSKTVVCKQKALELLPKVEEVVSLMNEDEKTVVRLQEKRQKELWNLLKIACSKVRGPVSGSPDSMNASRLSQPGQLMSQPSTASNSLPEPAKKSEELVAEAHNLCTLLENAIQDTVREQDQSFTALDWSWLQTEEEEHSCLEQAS

[2] = biological target: Serine/threonine-protein kinase PAK 5 (Homo sapiens) (UniProt Q9P286); assay: Inhibition of human recombinant PAK5 at 500 nM related to control ULK1
Chain of Serine/threonine-protein kinase PAK 5 (Homo sapiens) (Q9P286 whole entry, looked up): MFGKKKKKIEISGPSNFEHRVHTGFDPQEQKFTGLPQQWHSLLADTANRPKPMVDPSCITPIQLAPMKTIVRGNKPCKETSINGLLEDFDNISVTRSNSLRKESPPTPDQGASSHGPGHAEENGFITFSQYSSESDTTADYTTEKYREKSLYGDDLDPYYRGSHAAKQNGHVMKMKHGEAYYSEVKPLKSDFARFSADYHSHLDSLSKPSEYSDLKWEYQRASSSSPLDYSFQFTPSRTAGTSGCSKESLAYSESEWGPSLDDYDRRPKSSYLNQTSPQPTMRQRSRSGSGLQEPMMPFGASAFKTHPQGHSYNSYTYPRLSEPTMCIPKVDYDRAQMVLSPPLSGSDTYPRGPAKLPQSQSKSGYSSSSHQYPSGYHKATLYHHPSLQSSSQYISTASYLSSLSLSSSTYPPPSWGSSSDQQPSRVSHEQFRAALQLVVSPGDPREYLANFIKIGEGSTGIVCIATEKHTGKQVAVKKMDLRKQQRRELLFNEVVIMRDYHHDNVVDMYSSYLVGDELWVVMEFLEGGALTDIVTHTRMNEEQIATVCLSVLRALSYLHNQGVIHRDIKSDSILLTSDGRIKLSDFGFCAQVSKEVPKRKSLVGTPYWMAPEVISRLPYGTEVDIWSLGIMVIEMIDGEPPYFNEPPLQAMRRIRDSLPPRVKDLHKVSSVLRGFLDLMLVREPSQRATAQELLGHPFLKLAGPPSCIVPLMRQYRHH

[3] = biological target: Wee1-like protein kinase 2 (Homo sapiens) (UniProt P0C1S8); assay: Inhibition of human recombinant Wee1B at 500 nM related to control ULK1
Chain of Wee1-like protein kinase 2 (Homo sapiens) (P0C1S8 whole entry, looked up): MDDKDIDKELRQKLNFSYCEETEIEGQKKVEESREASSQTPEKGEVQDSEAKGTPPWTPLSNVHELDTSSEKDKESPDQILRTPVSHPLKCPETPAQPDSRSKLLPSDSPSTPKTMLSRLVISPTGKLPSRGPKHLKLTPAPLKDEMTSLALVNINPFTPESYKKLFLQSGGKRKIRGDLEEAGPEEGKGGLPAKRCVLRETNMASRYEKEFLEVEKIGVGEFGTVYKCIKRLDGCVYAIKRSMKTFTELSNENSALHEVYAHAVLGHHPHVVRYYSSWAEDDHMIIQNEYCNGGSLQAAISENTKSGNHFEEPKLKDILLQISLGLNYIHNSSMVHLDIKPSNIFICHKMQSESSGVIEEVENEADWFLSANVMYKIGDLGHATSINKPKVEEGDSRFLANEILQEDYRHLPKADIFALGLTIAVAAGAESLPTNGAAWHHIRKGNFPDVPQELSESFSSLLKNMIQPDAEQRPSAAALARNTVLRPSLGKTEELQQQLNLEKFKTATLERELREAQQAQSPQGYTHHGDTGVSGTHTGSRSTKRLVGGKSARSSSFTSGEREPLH

[4] = biological target: Protein kinase C alpha type (Homo sapiens) (UniProt P17252); assay: Inhibition of human recombinant PKCa at 15 nM related to control ULK1
[5] = biological target: STE20-like serine/threonine-protein kinase (Homo sapiens) (UniProt Q9H2G2); assay: Inhibition of human recombinant SLK at 15 nM related to control ULK1
Chain of STE20-like serine/threonine-protein kinase (Homo sapiens) (Q9H2G2 whole entry, looked up): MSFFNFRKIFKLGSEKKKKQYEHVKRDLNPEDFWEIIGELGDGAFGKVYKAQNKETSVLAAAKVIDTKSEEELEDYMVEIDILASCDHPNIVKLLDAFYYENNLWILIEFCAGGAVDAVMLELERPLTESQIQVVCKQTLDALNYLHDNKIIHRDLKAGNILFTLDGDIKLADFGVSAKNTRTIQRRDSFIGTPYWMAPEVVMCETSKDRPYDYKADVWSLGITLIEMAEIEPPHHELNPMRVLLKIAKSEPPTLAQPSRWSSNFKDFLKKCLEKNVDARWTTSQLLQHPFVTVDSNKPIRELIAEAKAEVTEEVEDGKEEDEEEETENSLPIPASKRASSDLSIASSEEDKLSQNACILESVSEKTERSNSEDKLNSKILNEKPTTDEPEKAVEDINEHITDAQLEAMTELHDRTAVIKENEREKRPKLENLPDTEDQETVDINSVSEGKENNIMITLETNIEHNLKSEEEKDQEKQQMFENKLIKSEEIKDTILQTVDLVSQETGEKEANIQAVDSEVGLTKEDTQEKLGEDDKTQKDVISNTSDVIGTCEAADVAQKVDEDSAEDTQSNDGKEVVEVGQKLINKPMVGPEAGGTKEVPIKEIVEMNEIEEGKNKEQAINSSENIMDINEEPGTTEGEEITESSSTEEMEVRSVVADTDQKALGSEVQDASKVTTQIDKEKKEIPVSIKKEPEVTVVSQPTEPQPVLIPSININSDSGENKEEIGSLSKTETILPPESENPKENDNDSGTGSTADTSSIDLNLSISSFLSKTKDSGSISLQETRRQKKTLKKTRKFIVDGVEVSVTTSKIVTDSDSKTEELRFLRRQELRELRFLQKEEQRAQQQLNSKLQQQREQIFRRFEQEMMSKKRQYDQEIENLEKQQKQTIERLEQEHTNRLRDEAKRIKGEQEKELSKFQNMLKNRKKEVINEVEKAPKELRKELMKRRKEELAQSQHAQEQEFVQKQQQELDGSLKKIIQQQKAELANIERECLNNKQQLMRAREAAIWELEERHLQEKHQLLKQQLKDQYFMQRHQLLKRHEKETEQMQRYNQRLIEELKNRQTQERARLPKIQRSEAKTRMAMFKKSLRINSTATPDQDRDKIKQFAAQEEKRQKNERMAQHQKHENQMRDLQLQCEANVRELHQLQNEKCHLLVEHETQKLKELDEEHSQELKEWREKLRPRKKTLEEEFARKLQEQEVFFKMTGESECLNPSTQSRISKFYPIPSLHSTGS

[6] = biological target: Fibroblast growth factor receptor 4 (Homo sapiens) (UniProt P22455); assay: Inhibition of human recombinant FGFR4 at 40 nM in presence of ATP by radiometric assay relative to control
Chain of Fibroblast growth factor receptor 4 (Homo sapiens) (P22455 22-802 limits assumed): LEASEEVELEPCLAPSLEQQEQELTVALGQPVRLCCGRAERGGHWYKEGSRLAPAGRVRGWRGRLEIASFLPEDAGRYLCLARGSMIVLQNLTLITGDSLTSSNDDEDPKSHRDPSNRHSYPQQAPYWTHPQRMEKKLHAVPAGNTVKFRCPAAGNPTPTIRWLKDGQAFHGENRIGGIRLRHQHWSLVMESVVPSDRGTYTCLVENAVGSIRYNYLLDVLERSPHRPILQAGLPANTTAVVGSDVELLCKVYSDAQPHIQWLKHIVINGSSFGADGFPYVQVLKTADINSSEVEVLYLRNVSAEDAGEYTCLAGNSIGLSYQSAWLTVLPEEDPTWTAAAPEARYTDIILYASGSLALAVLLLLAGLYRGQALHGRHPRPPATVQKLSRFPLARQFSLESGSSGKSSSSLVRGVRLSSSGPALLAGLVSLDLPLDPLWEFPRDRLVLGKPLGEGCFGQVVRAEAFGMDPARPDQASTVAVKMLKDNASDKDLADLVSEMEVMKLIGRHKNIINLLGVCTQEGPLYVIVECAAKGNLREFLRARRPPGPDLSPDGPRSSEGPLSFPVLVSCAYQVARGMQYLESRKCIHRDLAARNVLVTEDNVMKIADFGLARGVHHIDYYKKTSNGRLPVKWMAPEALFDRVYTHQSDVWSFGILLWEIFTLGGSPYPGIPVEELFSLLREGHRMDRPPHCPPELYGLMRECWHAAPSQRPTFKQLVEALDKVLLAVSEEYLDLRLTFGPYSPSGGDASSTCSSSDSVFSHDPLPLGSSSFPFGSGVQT

[7] = biological target: T2, Dual specificity protein kinase TTK (Homo sapiens) (UniProt P33981); assay: Inhibition of human recombinant TTK at 40 nM in presence of ATP by radiometric assay relative to control
T2 sequence (whole entry): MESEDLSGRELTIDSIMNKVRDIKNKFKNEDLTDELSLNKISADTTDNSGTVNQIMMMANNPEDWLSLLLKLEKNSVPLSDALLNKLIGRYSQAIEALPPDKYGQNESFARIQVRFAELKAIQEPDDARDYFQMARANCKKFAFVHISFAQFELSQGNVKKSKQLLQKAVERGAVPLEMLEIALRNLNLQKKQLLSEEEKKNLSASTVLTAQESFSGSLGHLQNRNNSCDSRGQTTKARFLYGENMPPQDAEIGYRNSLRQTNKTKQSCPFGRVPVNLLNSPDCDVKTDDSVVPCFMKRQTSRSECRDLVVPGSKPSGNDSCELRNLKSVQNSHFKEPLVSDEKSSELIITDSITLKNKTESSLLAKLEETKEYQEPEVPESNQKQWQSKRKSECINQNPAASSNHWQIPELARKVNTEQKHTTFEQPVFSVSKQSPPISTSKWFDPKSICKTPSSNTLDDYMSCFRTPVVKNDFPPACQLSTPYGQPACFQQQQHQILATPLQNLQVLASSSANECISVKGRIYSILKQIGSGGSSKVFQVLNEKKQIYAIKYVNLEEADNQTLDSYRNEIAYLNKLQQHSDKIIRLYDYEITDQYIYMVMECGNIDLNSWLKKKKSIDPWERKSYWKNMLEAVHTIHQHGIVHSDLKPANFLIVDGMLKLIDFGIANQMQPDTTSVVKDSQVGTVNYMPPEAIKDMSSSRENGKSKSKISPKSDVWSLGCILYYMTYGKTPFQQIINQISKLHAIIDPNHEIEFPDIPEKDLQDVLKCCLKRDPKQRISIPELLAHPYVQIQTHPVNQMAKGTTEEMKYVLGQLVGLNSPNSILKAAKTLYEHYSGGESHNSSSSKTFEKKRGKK

[8] = biological target: Serine/threonine-protein kinase 33 (Homo sapiens) (UniProt Q9BYT3); assay: Inhibition of human recombinant STK33 at 40 nM related to control ULK1
Chain of Serine/threonine-protein kinase 33 (Homo sapiens) (Q9BYT3 whole entry, looked up): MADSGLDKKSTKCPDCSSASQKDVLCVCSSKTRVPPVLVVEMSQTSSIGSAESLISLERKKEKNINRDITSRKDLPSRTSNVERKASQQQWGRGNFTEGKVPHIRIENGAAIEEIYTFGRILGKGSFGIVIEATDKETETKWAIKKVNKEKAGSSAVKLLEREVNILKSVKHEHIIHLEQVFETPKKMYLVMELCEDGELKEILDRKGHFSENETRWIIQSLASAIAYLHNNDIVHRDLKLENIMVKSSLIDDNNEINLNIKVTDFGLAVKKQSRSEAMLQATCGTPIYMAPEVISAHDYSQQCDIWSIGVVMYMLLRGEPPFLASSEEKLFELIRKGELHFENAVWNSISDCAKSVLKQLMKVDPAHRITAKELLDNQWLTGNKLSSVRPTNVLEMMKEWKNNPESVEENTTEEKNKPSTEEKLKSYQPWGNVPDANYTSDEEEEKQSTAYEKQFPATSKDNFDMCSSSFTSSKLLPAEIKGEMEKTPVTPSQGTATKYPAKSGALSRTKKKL

CNC(=O)c1ccccc1Oc1nc(Nc2cc(OC)c(OC)c(OC)c2)ncc1Br
fold change (FC) [1]: 0.03 | fold change (FC) [2]: 0.07 | fold change (FC) [3]: 0.03

CC(C)[C@H](NC(=O)c1cc(-c2cnn3cc(-c4ccc(OCCN5CCCCC5)cc4)cnc23)cs1)C(F)(F)F
fold change (FC) [4]: 0.08 | fold change (FC) [5]: 0.25

O=C(N[C@@H](C1CC1)C(F)(F)F)c1cc(-c2cnn3cc(-c4ccc(F)cc4)cnc23)cs1
inhibition [6]: 0% | inhibition [7]: 33% | fold change (FC) [8]: 0.26
